PubChem BioAssay (NCI)
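Dose response: 5 concentrations. Exposure: 48 h. Format: 96-well plates. Endpoint: linear interpolation; highest concentration if not reached. Abbreviation: GI50, concentration required for 50% inhibition of growth. The concentration for full growth arrest is given as TGI.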

Legend:
Assay in all cases: NCI-60 cell line screen, 48 h
[1] = system: M14 melanoma
[2] = system: NCI/ADR-RES ovarian
[3] = system: HCC-2998 colon
[4] = system: MDA-MB-231 breast
[5] = system: OVCAR-5 ovarian
[6] = system: UACC-62 melanoma
[7] = system: NCI-H522 lung
[8] = system: IGROV1 ovarian
[9] = system: MALME-3M melanoma
[10] = system: HL-60(TB) leukemia
[11] = system: SF-268 CNS
[12] = system: OVCAR-3 ovarian
[13] = system: SNB-75 CNS
[14] = system: CAKI-1 renal
[15] = system: MCF7 breast
[16] = system: EKVX NSCLC
[17] = system: K-562 leukemia
[18] = system: SN12C renal
[19] = system: SF-539 CNS
[20] = system: DU-145 prostate
[21] = system: PC-3 prostate
[22] = system: RXF 393 renal
[23] = system: HCT-15 colon
[24] = system: A549 NSCLC
[25] = system: MOLT-4 leukemia
[26] = system: RPMI-8226 leukemia
[27] = system: SW-620 colon
[28] = system: OVCAR-4 ovarian
[29] = system: BT-549 breast
[30] = system: CCRF-CEM leukemia
[31] = system: ACHN renal
[32] = system: NCI-H460 lung
[33] = system: T-47D breast
[34] = system: SNB-19 CNS
[35] = system: SK-MEL-28 melanoma
[36] = system: SK-MEL-2 melanoma
[37] = system: U251 CNS
[38] = system: SR leukemia
[39] = system: SK-OV-3 ovarian
[40] = system: MDA-MB-435
[41] = system: HS 578T breast
[42] = system: HCT-116 colon
[43] = system: KM12 colon
[44] = system: OVCAR-8 ovarian
[45] = system: TK-10 renal
[46] = system: NCI-H23 lung
[47] = system: NCI-H226 lung
[48] = system: HOP-62 NSCLC
[49] = system: 786-0 renal
[50] = system: COLO 205 colon
[51] = system: LOX IMVI melanoma
[52] = system: SF-295 CNS
[53] = system: SK-MEL-5 melanoma
[54] = system: UACC-257 melanoma
[55] = system: HOP-92 NSCLC
[56] = system: HT29 colon
[57] = system: UO-31 renal
[58] = system: A498 renal

CN(C)c1ccc(N=Nc2ccc(Br)cn2)c(O)c1
GI50 [1]: 691 nM
TGI [1]: > 21300 nM
GI50 [2]: 362 nM
TGI [2]: 12500 nM
GI50 [3]: 476 nM
TGI [3]: > 100000 nM
GI50 [4]: 551 nM
TGI [4]: > 100000 nM
GI50 [5]: 1420 nM
TGI [5]: > 100000 nM
GI50 [6]: 737 nM
TGI [6]: 8350 nM
GI50 [7]: 983 nM
TGI [7]: > 28600 nM
GI50 [8]: 359 nM
TGI [8]: > 100000 nM
GI50 [9]: 2650 nM
TGI [9]: > 100000 nM
GI50 [10]: 260 nM
TGI [10]: 2440 nM
GI50 [11]: 404 nM
TGI [11]: > 100000 nM
GI50 [12]: 320 nM
TGI [12]: > 31000 nM
GI50 [13]: 1550 nM
TGI [13]: > 82600 nM
GI50 [14]: 790 nM
TGI [14]: > 100000 nM
GI50 [15]: 385 nM
TGI [15]: > 100000 nM
GI50 [16]: 382 nM
TGI [16]: > 100000 nM
GI50 [17]: 471 nM
TGI [17]: > 100000 nM
GI50 [18]: 704 nM
TGI [18]: > 100000 nM
GI50 [19]: 673 nM
TGI [19]: 8800 nM
GI50 [20]: 653 nM
TGI [20]: > 100000 nM
GI50 [21]: 556 nM
TGI [21]: > 100000 nM
GI50 [22]: 620 nM
TGI [22]: 7060 nM
GI50 [23]: 171 nM
TGI [23]: > 100000 nM
GI50 [24]: 682 nM
TGI [24]: > 100000 nM
GI50 [25]: 294 nM
TGI [25]: > 46700 nM
GI50 [26]: 528 nM
TGI [26]: > 100000 nM
GI50 [27]: 565 nM
TGI [27]: > 100000 nM
GI50 [28]: 186 nM
TGI [28]: 4890 nM
GI50 [29]: 737 nM
TGI [29]: > 100000 nM
GI50 [30]: 227 nM
GI50 [31]: 361 nM
TGI [31]: > 100000 nM
GI50 [32]: 281 nM
TGI [32]: > 34700 nM
GI50 [33]: 568 nM
TGI [33]: > 100000 nM
GI50 [34]: 641 nM
TGI [34]: > 100000 nM
GI50 [35]: 2050 nM
TGI [35]: > 100000 nM
GI50 [36]: 5280 nM
TGI [36]: > 100000 nM
GI50 [37]: 373 nM
TGI [37]: > 100000 nM
GI50 [38]: 149 nM
TGI [38]: > 34000 nM
GI50 [39]: 774 nM
TGI [39]: > 100000 nM
GI50 [40]: 1930 nM
TGI [40]: > 100000 nM
GI50 [41]: 5780 nM
TGI [41]: > 100000 nM
GI50 [42]: 325 nM
TGI [42]: > 40000 nM
GI50 [43]: 854 nM
TGI [43]: > 100000 nM
GI50 [44]: 549 nM
TGI [44]: > 100000 nM
GI50 [45]: 681 nM
TGI [45]: > 100000 nM
GI50 [46]: 1130 nM
TGI [46]: > 100000 nM
GI50 [47]: 1080 nM
TGI [47]: 7680 nM
GI50 [48]: 389 nM
TGI [48]: > 73600 nM
GI50 [49]: 266 nM
TGI [49]: > 100000 nM
GI50 [50]: 373 nM
TGI [50]: > 32800 nM
GI50 [51]: 294 nM
GI50 [52]: 635 nM
TGI [52]: > 100000 nM
GI50 [53]: 774 nM
TGI [53]: 4350 nM
GI50 [54]: 2270 nM
TGI [54]: 7840 nM
GI50 [55]: 1310 nM
TGI [55]: > 100000 nM
GI50 [56]: 603 nM
TGI [56]: > 100000 nM
GI50 [57]: 160 nM
TGI [57]: > 100000 nM
GI50 [58]: 3210 nM
TGI [58]: 66700 nM
